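Following 48 hours of exposure in 96-well plates, responses at five concentrations were used to interpolate endpoints linearly. GI50 marks 50% less growth. TGI marks complete inhibition of growth.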
Assays:
Experiment in all cases: NCI anticancer screen, dose series, 48 h
RXF 393 renal = tested on: RXF 393 renal
SN12C renal = tested on: SN12C renal
MDA-MB-231 breast = tested on: MDA-MB-231 breast
MDA-N = tested on: MDA-N
MDA-MB-435 = tested on: MDA-MB-435
OVCAR-3 ovarian = tested on: OVCAR-3 ovarian
UACC-62 melanoma = tested on: UACC-62 melanoma
MALME-3M melanoma = tested on: MALME-3M melanoma
LOX IMVI melanoma = tested on: LOX IMVI melanoma

Compound	TGI (RXF 393 renal)	TGI (SN12C renal)	TGI (MDA-MB-231 breast)	TGI (MDA-N)	TGI (MDA-MB-435)	TGI (OVCAR-3 ovarian)	TGI (UACC-62 melanoma)	TGI (MALME-3M melanoma)	TGI (LOX IMVI melanoma)	GI50 (SN12C renal)	GI50 (LOX IMVI melanoma)	GI50 (MDA-MB-231 breast)	GI50 (OVCAR-3 ovarian)	GI50 (UACC-62 melanoma)	GI50 (MALME-3M melanoma)
COc1ccc(C2SCC(=O)N2N=C2NC(=O)CC(=O)N2)cc1 (stereo unspecified)	> 100 µM	> 100 µM	> 100 µM	> 100 µM	> 100 µM	> 100 µM	> 100 µM	> 100 µM							
COc1ccc(-n2c(CCCC(=O)O)nc3c2C(=O)c2ccccc2C3=O)cc1		> 100 µM	> 100 µM	> 100 µM	78.9 µM	92.9 µM	> 100 µM	59.7 µM	> 100 µM						
COc1ccc2c(c1O)-c1c(OC)c(OC)cc3c1[C@H](C2)[N+](C)(C)CC3		> 100 µM	> 100 µM	> 100 µM	> 100 µM	> 100 µM	> 100 µM	> 100 µM	> 100 µM						
CC(=O)N[C@@H](Cc1ccc(O)cn1)C(=O)NCc1cccc(F)c1	> 100 µM	> 100 µM		> 100 µM	> 100 µM	> 100 µM	> 100 µM	> 100 µM	> 100 µM						
COc1ccc(C2CC(c3cc4c(C)c(C(=O)c5ccccc5)oc4cc3O)=Nc3ccccc3S2)cc1OC (stereo unspecified)		> 100 µM	> 100 µM	> 61.6 µM	2.05 µM	> 100 µM	> 85.8 µM	> 100 µM	> 100 µM						
O=C1N[C@H]2c3c(Cl)sc(Cl)c3C(=O)[C@H]2O1	> 79.8 µM	> 47.6 µM	> 58.2 µM	> 57.5 µM	36 µM	36.8 µM	36.4 µM	24.1 µM	13.9 µM						
CN(NC(=O)c1ccco1)C1=NCCCCN1	> 100 µM	> 100 µM	> 100 µM	> 100 µM	> 100 µM	> 100 µM	> 100 µM	> 100 µM	> 100 µM						
COC(=O)Cc1c([C@@H]2Nc3ccccc3[C@H]2CC(=O)OC)[nH]c2ccccc12	> 100 µM	> 100 µM	88.9 µM	> 100 µM	84.8 µM	42.8 µM	34.3 µM		> 100 µM						
C[N+]1(C)CC=C(N2CCOCC2)CC1	> 10 µM	> 10 µM	> 10 µM	> 10 µM	> 10 µM	> 10 µM	> 10 µM	> 10 µM	> 10 µM						
Cc1cc(Br)c(N2C3=C(CC4=C2CCCC4=O)C(=O)CCC3)c(Br)c1	84.7 µM	> 100 µM				> 100 µM	> 100 µM		> 100 µM						
COC(=O)C(=O)C(C(=O)C(=O)Nc1ccccc1C(=O)OC)c1nc2ccc(C(=O)c3ccccc3)cc2[nH]c1=O (stereo unspecified)	> 100 µM	> 100 µM	> 100 µM	> 100 µM	> 100 µM	> 100 µM	> 100 µM	> 100 µM	> 100 µM						
[N-]=N[N+]#I1OC(C(F)(F)F)(C(F)(F)F)c2ccccc21	30.7 µM	30 µM	29 µM		34.2 µM	27.8 µM	47.8 µM		77.1 µM						
CC12CC3c4ccccc4CN1C3(c1ccccc1)OC2=O (stereo unspecified)	> 100 µM	> 100 µM	> 100 µM		> 100 µM		> 100 µM	> 100 µM	> 100 µM						
Oc1ccc(-c2cc(-c3c(O)cc(O)cc3O)on2)cc1		> 100 µM	> 100 µM	> 100 µM	> 100 µM	> 100 µM	> 100 µM	> 100 µM	> 100 µM						
O=C(NCc1cn(Cc2cccc(Oc3ccccc3)c2)nn1)c1cccnc1Nc1ccccc1		51.2 µM	5.97 µM			5.46 µM	33.8 µM	> 100 µM	> 100 µM	4.3 µM	4.54 µM	2.25 µM	2.28 µM	3.02 µM	16.1 µM
CC(C)CN1CN(c2ccccc2)C2(CCN(CC(C)(c3ccc(F)cc3)C3OCCO3)CC2)C1=O (stereo unspecified)	21.9 µM	19.1 µM		19.6 µM	23.5 µM	22.4 µM	26.3 µM	17.2 µM	5.31 µM						
N#CI1OC(=O)c2ccccc21	> 100 µM	> 100 µM	> 100 µM		> 100 µM	> 100 µM	> 100 µM		> 100 µM						
N#CC(c1ccc(O)cc1)N1CCN(C(C#N)c2ccc(O)cc2)CC1 (stereo unspecified)	> 92.5 µM	> 100 µM	55.8 µM		> 100 µM	> 100 µM	> 100 µM	> 100 µM	> 100 µM						
COC(=O)c1ccc(CN2CCc3c([nH]c4ccccc34)C2CO)o1 (stereo unspecified)	> 10 µM	> 10 µM	> 10 µM	> 10 µM	> 10 µM	> 10 µM	> 10 µM	> 10 µM							
C1=C2SSC3=CC=C(SSc4ccc(s4)SSC4=CC=C(SSC(=C1)S2)S4)S3	> 100 µM	> 100 µM	> 100 µM	> 100 µM	> 100 µM	> 100 µM		> 100 µM	> 100 µM						
CC1(C)CCc2c(cc3c(c2O)CCC(C)(C)O3)O1		> 100 µM	> 100 µM	> 100 µM		> 100 µM	> 100 µM	> 100 µM							
NCCC1(N)CCNCC1	> 100 µM	> 100 µM	> 100 µM	> 100 µM	> 100 µM		> 100 µM	> 100 µM							
O=C1Nc2ccccc2C(=O)OC(Cc2ccccc2)=Nc2ccccc21	> 100 µM	> 100 µM		> 100 µM	> 100 µM	> 100 µM	> 100 µM		> 100 µM						
CCCCCCCCCCCCNC(=O)NCC(OCC)OCC	> 10 µM	> 10 µM	> 10 µM	> 10 µM	> 10 µM		> 10 µM		> 10 µM						
C/C(=N\Nc1nc2cc(C)ccc2s1)c1ccccn1	> 22.9 µM	8.85 µM	0.93 µM	> 100 µM	> 64.5 µM			> 22 µM	3.68 µM						
